Assay results: patent EP1695704A1, “Derivatives of aryl (or heteroaryl) azolylcarbinols for the treatment of fibromyalgia” (LABORATORIOS DEL DR. ESTEVE, S.A., priority 2005, dated 2006)

Experiments:
Format in all cases: in vivo
[1] = test system: Unilateral ligature of the sciatic nerve; test: Neuropathic pain, Bennet model, mechanical response thresholds; details: rats with sciatic nerve ligature; dose-effect study; Figure 1
From the text: Neuropathic Pain - Dose-effect study of Example 1 Phase I (Bennet model): Unilateral ligature of the sciatic nerve (mechanical response thresholds)
According to the Model described by Bennet (Bennet and Xie, Pain 1988, 33, 87-107) a well established model for neuropathic pain, rats were operated with the following surgical procedure,
(§1) Rats were anaesthesized using Pentobarbital. Then the skin was incised. Following that a sciatic nerve ligature was placed and the incision was closed with silk thread.
(§2) In Sham-operated control animals the identical surgical procedures were followed, but the nerve was not ligatured.

Mice = test: Depression, Mice tail Suspension; details: Mus musculus, po
Procedure: Depression, Mice tail Suspension
Mice were prepared according to the Model described by
The inhibition shown by the compound according to example 1 was: […]

[2] = test system: ptosis by reserpine in mice; test: Depression, Reserpine test; details: Mus musculus, po
Procedure: Depression, Reserpine test
Mice were prepared according to the Model described by C.J.E. Niemegeers "Antagonism of Reserpine-like activity" in "Antidepressants", Ed. by S. Fielding, Futura Publishing Co., New York 1975. Pags 73-98 and Garattini S. et al. "Antagonists of Reserpine-induced eyelid ptosis" Med.Exp. 3 : 315-320 (1960):
The inhibition shown by the compound according to example 1 in ptosis by reserpine in mice was: […]

[3] = test system: Unilateral ligature of the sciatic nerve; test: Neuropathic pain, Bennet model, thermal response thresholds; details: rats with sciatic nerve ligature; dose-effect study; Figure 2
From the text: Neuropathic Pain - Dose-effect study of Example 1 Phase I (Bennet model): Unilateral ligature of the sciatic nerve (thermal response thresholds)
According to the Model described by Bennet (Bennet and Xie, Pain 1988, 33, 87-107) a well established model for neuropathic pain, rats were operated with the following surgical procedure:
as §1, §2

CN(C)CCOC(c1ccccc1)c1ccnn1C (racemic) [Example 1, (±)-5-{α-[2-(dimethylamino)ethoxy]benzyl}-1-methyl-1H-pirazole]
effect on vocalization threshold using a mechanical stimulus [1]: clear dose-dependent effect | ED50 (Mice): 17 mg/kg | inhibition at 10 mg/kg (Mice; dose 10 mg/kg p.o.): 38% | inhibition at 20 mg/kg (Mice; dose 20 mg/kg p.o.): 54% | inhibition at 40 mg/kg (Mice; dose 40 mg/kg p.o.): 71% | inhibition at 80 mg/kg (Mice; dose 80 mg/kg p.o.): 70% | ED50 [2]: 26.2 mg/kg | inhibition at 10 mg/kg ([2]; dose 10 mg/kg p.o.): 21% | inhibition at 20 mg/kg ([2]; dose 20 mg/kg p.o.): 47% | inhibition at 40 mg/kg ([2]; dose 40 mg/kg p.o.): 75% | inhibition at 80 mg/kg ([2]; dose 80 mg/kg p.o.): 75% | inhibition at 160 mg/kg ([2]; dose 160 mg/kg p.o.): 71% | effect on struggle latency in a low temperature thermal response threshold [3]: clear dose-dependent effect
